Data from BindingDB's records for doi:10.1016/j.bmcl.2008.03.029 (Gifu University, 2008).

Assay: Inhibition of human recombinant SAHH at 1000 uM

IC50: 18 µM
SMILES: Nc1ncnc2c1ncn2[C@@H]1CC[C@@H](O)[C@H]1O [(1R,2S,3R)-3-(6-amino-9H-purin-9-yl)cyclopentane-1,2-diol]
